Measured values published in patent US20210041466A1, “DIAGNOSTIC METHODS AND KITS” (Cholestenix Limited, priority 2015, published 2021).

Columns and labels:
[1] = tested on: Smoothened (Smo); details: from the literature (Myers Dev Cell 2013; Corcoran PNAS 2006; Nachtergaele Nat Chem Bio 2012); cited from earlier work
[2] = tested on: Hedgehog signalling (Gli1 mRNA); assay: Hedgehog signalling assay using quantitative RT-PCR (Gli1 mRNA in NIH/3T3 cells); type: cell-based; details: sterol treatment ~16 hours, different concentrations (FIG. 6, 7)
Protocol: NIH/3T3 cells were grown to confluency in Dulbecco's Modified Eagle's Medium (DMEM) containing 10% Fetal Bovine Serum (FBS, Optima Grade, Atlanta Biologicals). Confluent cells were exchanged into 0.5% FBS DMEM for 24 hours to allow ciliogenesis prior to treatment with sterols in DMEM containing 0.5% FBS for ˜16 hours. SHH protein carrying a C-terminal hexa-histidine tag was expressed in bacteria and purified as described previously [Bishop Nat Struct Mol Biol 2009]. The mRNA levels of Gli1, a direct Hh target gene commonly used as a metric for signalling strength, were measured using the Power SYBR Green Cells-To-CT kit (Thermo Fisher Scientific). The primers used are Gli1 (forward primer: 5′-[…]-3′ and reverse primer: 5′-[…]-3′), Gapdh (forward primer: 5′-[…]-3′ and reverse primer: 5′-[…]-3′). Transcript levels relative to Gapdh were calculated using the Δelta-Ct method. Each qRT-PCR experiment, which was repeated twice, included two biological replicates, each with two technical replicates.

Row | SMILES | activation of Smo [1] | effect on Hedgehog signalling (mRNA levels of Gli1) [2]
1 | CC(C)CCC[C@](C)(O)[C@H]1CC[C@H]2[C@@H]3CC=C4C[C@@H](O)CC[C@]4(C)[C@H]3CC[C@@]21C [20S-Hydroxycholesterol, reference compound] | activate Smo in vitro | 
2 | C[C@H](CCC(=O)O)[C@H]1CC[C@H]2[C@@H]3C(=O)C=C4C[C@@H](O)CC[C@]4(C)[C@H]3CC[C@]12C [Compound XXI, 3β-Hydroxy-7-oxochol-5-en-24-oic acid] |  | inhibitor of Hedgehog signalling
3 | C[C@@H](CO)CCC[C@@H](C)[C@H]1CC[C@H]2[C@@H]3C(=O)C=C4C[C@@H](O)CC[C@]4(C)[C@H]3CC[C@]12C [Compound XX, 3β,26-Dihydroxycholest-5-en-7-one] | activators of Smo | activator of Hedgehog signalling
4 | C[C@H](CCCC(C)(C)O)[C@H]1CC[C@H]2[C@@H]3C(=O)C=C4C[C@@H](O)CC[C@]4(C)[C@H]3CC[C@]12C [Compound XXII, 3β,25-dihydroxycholest-5-en-7-one] | activators of Smo | 
